Among the data in US10266497B2 (ABIDE THERAPEUTICS, INC., priority 2017, dated 2019) are inhibition and IC50 values, retold here.

Assay [1] addresses T1, MAGL (Homo sapiens, UniProt Q99685).
T1 sequence (Q99685 1-303): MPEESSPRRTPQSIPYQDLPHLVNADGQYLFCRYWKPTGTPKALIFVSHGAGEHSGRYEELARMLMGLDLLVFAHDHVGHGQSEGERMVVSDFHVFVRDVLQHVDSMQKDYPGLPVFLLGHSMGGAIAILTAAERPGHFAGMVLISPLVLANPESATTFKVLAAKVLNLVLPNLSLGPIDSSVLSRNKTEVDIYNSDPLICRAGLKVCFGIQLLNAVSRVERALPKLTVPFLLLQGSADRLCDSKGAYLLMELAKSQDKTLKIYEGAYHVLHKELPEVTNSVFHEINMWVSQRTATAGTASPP
Put plainly: In vitro competitive activity-based protein profiling, MAGL, human. To be noted: for inhibition at 1 µM: read-out: MAGL % inh. 1 μM (human).

Assay [2] addresses T2, MAGL (Mus musculus, UniProt O35678).
T2 sequence (O35678 1-303): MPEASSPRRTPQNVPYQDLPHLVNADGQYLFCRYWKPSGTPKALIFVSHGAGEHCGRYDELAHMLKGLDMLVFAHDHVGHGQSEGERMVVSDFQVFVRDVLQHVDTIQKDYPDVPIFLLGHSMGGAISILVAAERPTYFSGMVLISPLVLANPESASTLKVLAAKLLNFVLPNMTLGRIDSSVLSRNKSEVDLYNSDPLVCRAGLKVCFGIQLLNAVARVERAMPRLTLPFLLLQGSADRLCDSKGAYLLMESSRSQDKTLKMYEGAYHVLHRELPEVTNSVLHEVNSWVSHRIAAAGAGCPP
Description: In vitro competitive activity-based protein profiling, MAGL, mouse. To be noted: read-out: MAGL % inh. 1 μM (mouse).

In the case of `O=C(O)c1ccn(C(=O)N2CCC3(CCCN3Cc3ccc(C(F)(F)F)cc3N3CCN4CCC[C@H]4C3)CC2)n1` [Example 418, (S)-1-(1-(2-(hexahydropyrrolo[1,2-a]pyrazin-2(1H)-yl)-4-(trifluoromethyl)benzyl)-1,8-diazaspiro[4.5]decane-8-carbonyl)-1H-pyrazole-3-carboxylic acid], the inhibition at 1 µM was 25 to 50% in assay [1] and 0 to 25% in assay [2].
Consider `O=C(O)c1ccn(C(=O)N2C[C@H]3C[C@H](Oc4cc(F)cc(Cl)c4)C[C@H]3C2)n1` [Example 222, 1-(trans-5-(3-chloro-5-fluorophenoxy)octa-hydrocyclopenta[c]pyrrole-2-carbonyl)-1H-pyrazole-3-carboxylic acid], for which the inhibition at 1 µM in assay [1] and in assay [2] was above 75% in each case.
For `O=C(O)c1ccn(C(=O)N2CCN(Cc3cccc(Oc4ccnc(C(F)(F)F)c4)c3)CC2)n1` [Example 355, 1-(4-(3-((2-(trifluoromethyl)pyridin-4-yl)oxy)benzyl)piper-azine-1-carbonyl)-1H-pyrazole-3-carboxylic acid], the inhibition at 1 µM in assay [1] and in assay [2] was above 75% in each case.
On to `O=C(O)c1nn(C(=O)N2CCN(Cc3ccc(N4CCCC4)cc3C(F)(F)F)CC2)cc1Cl` [Example 368, 4-chloro-1-(4-(4-(pyrrolidin-1-yl)-2-(trifluoromethyl)benzyl)piperazine-1-carbonyl)-1H-pyrazole-3-carboxylic acid], for which the inhibition at 1 µM in assay [1] and in assay [2] was above 75% throughout.
`NC(=O)c1ccn(C(=O)N2CCC3(CCCN3Cc3cc4ccc(C(F)(F)F)cc4s3)CC2)n1` [Example 22, 1-(1-((6-(Trifluoromethyl)benzo[b]thiophen-2-yl)methyl)-1,8-diazaspiro[4.5]decane-8-carbonyl)-1H-pyrazole-3-carboxamide]: the inhibition at 1 µM in assay [1] and in assay [2] was above 75% each time.
Regarding `O=C(O)c1ccn(C(=O)N2CCC(OCc3cc(Cl)ccc3C(F)(F)F)CC2)n1` [Example 277, 1-(4-((5-chloro-2-(trifluoromethyl)benzyl)oxy)piper-idine-1-carbonyl)-1H-pyrazole-3-carboxylic acid], the inhibition at 1 µM in assay [1] and in assay [2] was above 75% in each case.
As for `C[C@H]1CN(Cc2ccc(C(F)(F)F)cc2N2CCCC2)CCN1C(=O)n1ccc(C(N)=O)n1` [Example 326, (S)-1-(2-methyl-4-(2-(pyrrolidin-1-yl)-4-(trifluoromethyl)benzyl)piperazine-1-carbonyl)-1H-pyrazole-3-carboxamide], the inhibition at 1 µM in assay [1] and in assay [2] was above 75% in each case.
Regarding `O=C(O)c1ccn(C(=O)N2CCC(OCc3cc(Cl)cc(Oc4ccc(Cl)cc4)c3)CC2)n1` [Example 27, 1-(4-((3-Chloro-5-(4-chlorophenoxy)benzyl)oxy)piperidine-1-carbonyl)-1H-pyrazole-3-carboxylic Acid], the inhibition at 1 µM in assay [1] and in assay [2] was above 75% in each case.
In the case of `O=C(O)c1nn(C(=O)N2CCN(Cc3cccc(-c4cncnc4)c3)CC2)cc1Cl` [Example 270, 4-chloro-1-(4-(3-(pyrimidin-5-yl)benzyl)piperazine-1-carbonyl)-1H-pyrazole-3-carboxylic acid], the inhibition at 1 µM in assay [1] and in assay [2] was above 75% throughout.
Regarding `O=C(O)c1ccn(C(=O)N2CCC3(CCCN3Cc3ccc(C(F)(F)F)cc3N3CCOCC3)CC2)n1` [Example 405, 1-(1-(2-morpholino-4-(trifluoromethyl)benzyl)-1,8-diazaspiro[4.5]decane-8-carbonyl)-1H-pyrazole-3-carboxylic acid], the inhibition at 1 µM in assay [1] and in assay [2] was above 75% each time.
Take `O=C(O)c1ccn(C(=O)N2CCN(Cc3ccc(C(F)(F)F)cc3N3CC[C@H](O)C3)CC2)n1` [Example 332, (S)-1-(4-(2-(3-hydroxypyrrolidin-1-yl)-4-(trifluoromethyl)benzyl)piperazine-1-carbonyl)-1H-pyrazole-3-carboxylic acid]: the inhibition at 1 µM in assay [1] and in assay [2] was above 75% in each case.
Usually IC50 stands for the concentration that gives 50% inhibition. A high value points to weaker potency in that assay. In the case of `O=C(O)c1ccn(C(=O)N2C[C@H]3C[C@@H](OCc4cccc(C(F)(F)F)c4)C[C@H]3C2)n1` [Example 255, 1-(trans-5-((3-(trifluoromethyl)benzyl)oxy)octa-hydrocyclopenta[c]pyrrole-2-carbonyl)-1H-pyrazole-3-carboxylic acid], in assay [1], the IC50 fell in the range of 100 to 1000 nM and the inhibition at 1 µM was above 75%. Moreover, the inhibition at 1 µM in assay [2] was above 75%.
`O=C(O)c1ccn(C(=O)N2CCC3(CCCN3Cc3ccc(C(F)(F)F)cc3N3CC4COCC4C3)CC2)n1` (stereo not drawn) [Example 415, 1-(1-(2-(tetrahydro-1H-furo[3,4-c]pyrrol-5(3H)-yl)-4-(trifluoromethyl)benzyl)-1,8-diazaspiro[4.5]decane-8-carbonyl)-1H-pyrazole-3-carboxylic acid]: the inhibition at 1 µM in assay [1] and in assay [2] was above 75% in each case.
Turning to `O=C(O)c1ccn(C(=O)N2C[C@H]3C[C@H](OCc4cccc(C5CCCC5)c4)C[C@H]3C2)n1` [Example 34, 1-(trans-5-((3-Cyclopentylbenzyl)oxy)octahydrocyclopenta[c]pyrrole-2-carbonyl)-1H-pyrazole-3-carboxylic Acid], the inhibition at 1 µM in assay [1] and in assay [2] was above 75% in each case.
Regarding `O=C(O)c1ccn(C(=O)N2CCN(Cc3ccc(Cl)c(-c4nccs4)c3)CC2)n1` [Example 274, 1-(4-(4-chloro-3-(thiazol-2-yl)benzyl)piperazine-1-carbonyl)-1H-pyrazole-3-carboxylic acid], the inhibition at 1 µM in assay [1] and in assay [2] was above 75% each time.
For the compound `O=C(O)c1ccn(C(=O)N2CCN(Cc3ccc(C(F)(F)F)cc3N3CC[C@@H](O)C3)CC2)n1` [Example 333, (R)-1-(4-(2-(3-hydroxypyrrolidin-1-yl)-4-(trifluoromethyl)benzyl)piperazine-1-carbonyl)-1H-pyrazole-3-carboxylic acid], the inhibition at 1 µM in assay [1] and in assay [2] was above 75% in each case.
In the case of `O=C(O)c1ccn(C(=O)N2C[C@H]3C[C@@H](NCc4ccc(Oc5ccc(Cl)cc5)cc4)C[C@H]3C2)n1` [Example 363, 1-(cis-5-((4-(4-chlorophenoxy)benzyl)amino)octa-hydrocyclopenta[c]pyrrole-2-carbonyl)-1H-pyrazole-3-carboxylic acid], the inhibition at 1 µM in assay [1] and in assay [2] was 0 to 25% throughout.
For `O=C(O)c1ccn(C(=O)N2CCC3(CCN(Cc4cccc(-c5nccs5)c4)C3)CC2)n1` [Example 305, 1-(2-(3-(thiazol-2-yl)benzyl)-2,8-diazaspiro[4.5]decane-8-carbonyl)-1H-pyrazole-3-carboxylic acid], the results for the inhibition at 1 µM in assay [1] and in assay [2] were 50 to 75% and 0 to 25%, respectively.
As to `C[C@@H]1CN(Cc2ccc(-c3ccccc3)cc2C(F)(F)F)CCN1C(=O)n1ccc(C(=O)O)n1` [Example 351, (R)-1-(2-methyl-4-((3-(trifluoromethyl)-[1,1′-biphenyl]-4-yl)methyl)piperazine-1-carbonyl)-1H-pyrazole-3-carboxylic acid], the inhibition at 1 µM in assay [1] and in assay [2] was above 75% in each case.
